Results reported in patent US20250066389A1, “HETEROCYCLIC AMIDES AND METHODS OF USING THE SAME” (Rgenta Therapeutics, Inc., priority 2021, published 2025).
Counter-ions that a name gives are not always drawn.

The molecules below were run on PMS1 (assay: Mini-Gene Reporter Assay—PMS1 (firefly luciferase mini-gene reporter transiently transfected into HEK293 cells)). Details: Homo sapiens; at 5 uM; mini-gene firefly luciferase reporter in HEK293 cells; read-out: PMS1 % Effect at 5 uM.
Type: cell-based
How it was run: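 HEK293 cells transiently transfected with a mini-gene construct (skipped exon with flanking introns/exons fused to firefly luciferase, pcDNA3.1) are incubated with compounds in duplicate. Exon inclusion raises luminescence; EC50 fitted by Levenberg-Marquardt; effect also scored at 5 μM.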

Structure (SMILES) | activation at 5 µM [%]
CCOc1cn2nc(C)cc2cc1C(=O)Nc1ccc(C2=CCNCC2)nn1 [Compound 754, 6-ethoxy-2-methyl-N-(6-(1,2,3,6-tetrahydropyridin-4-yl)pyridazin-3-yl)pyrazolo[1,5-a]pyridine-5-carboxamide hydrochloride] | > 75
CCOc1cn2nc(C)cc2cc1C(=O)Nc1ccc(N2CCNC(C)(C)C2)nn1 [Compound 755, N-(6-(3,3-dimethylpiperazin-1-yl)pyridazin-3-yl)-6-ethoxy-2-methylpyrazolo[1,5-a]pyridine-5-carboxamide hydrochloride] | > 75
CCOc1cc2nn(C)cc2cc1C(=O)Nc1ccc(C2=CC(C)(C)NCC2)nn1 [Compound 756, N-(6-(6,6-dimethyl-1,2,3,6-tetrahydropyridin-4-yl)pyridazin-3-yl)-6-ethoxy-2-methyl-2H-indazole-5-carboxamide formate] | > 75
CCOc1cn2nc(C)cc2cc1C(=O)Nc1ccc(C2CCNCC2)nn1 [Compound 757, 6-ethoxy-2-methyl-N-(6-(piperidin-4-yl)pyridazin-3-yl)pyrazolo[1,5-a]pyridine-5-carboxamide hydrochloride] | > 75
CCOc1cc2nc(C)cn2cc1C(=O)Nc1ccc(N2CC(C)NC(CC)C2)nn1 (stereo not shown) [Compound 758, 7-ethoxy-N-(6-(3-ethyl-5-methylpiperazin-1-yl)pyridazin-3-yl)-2-methylimidazo[1,2-a]pyridine-6-carboxamide] | > 75
CCOc1cc2nc(C)cn2cc1C(=O)Nc1ccc(C2=CCN(C)CC2)nn1 [Compound 759, 7-ethoxy-2-methyl-N-(6-(1-methyl-1,2,3,6-tetrahydropyridin-4-yl)pyridazin-3-yl)imidazo[1,2-a]pyridine-6-carboxamide] | > 75
CCOc1cn2nc(C)cc2cc1C(=O)Nc1ccc(N2C[C@@H](C)N[C@@H](C)C2)nn1 [Compound 761, N-(6-((3R,5S)-3,5-dimethylpiperazin-1-yl)pyridazin-3-yl)-6-ethoxy-2-methylpyrazolo[1,5-a]pyridine-5-carboxamide hydrochloride] | > 75
